Measured values published in PubChem BioAssay AID2020 (NMMLSC, 2009).
Activity calls are given as the source filed them.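 Rule for the calls: active = EC50 at or below 30 µM together with a response span of at least a set limit; inactive = the rest.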

Target: Cell division control protein 42 homolog (Homo sapiens) (UniProt P60953)
Test: activated Cdc42 mutant GTP binding inhibitors, SAR follow-up, biochemical, pyrazoline analogs, multiplex bead flow cytometry, Ki (AID 2020)
Conditions: bead-based flow cytometry, Bodipy-FL-GTP binding; for Ki: measured here: Ki calculated from EC50

Cell division control protein 42 homolog (Homo sapiens), sequence (P60953 whole entry, looked up, change not shown): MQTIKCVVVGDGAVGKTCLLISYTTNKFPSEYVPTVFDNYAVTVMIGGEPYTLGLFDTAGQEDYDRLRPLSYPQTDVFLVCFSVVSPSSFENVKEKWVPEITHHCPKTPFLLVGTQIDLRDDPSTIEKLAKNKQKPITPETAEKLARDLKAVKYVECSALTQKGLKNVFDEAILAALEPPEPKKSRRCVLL

SMILES	EC50	Ki [µM]
NS(=O)(=O)c1ccc(N2N=C(c3ccccc3)CC2c2ccccc2Cl)cc1 (stereo not drawn)	7.4 µM	1.14
NS(=O)(=O)c1ccc(N2N=C(c3ccccc3)CC2c2ccccc2Br)cc1 (stereo not drawn)	> 30 µM (inactive)	–
CN(C)c1ccc(C2CC(c3ccc(Br)cc3)=NN2c2ccccc2)cc1 (stereo not drawn)	> 30 µM (inactive)	–
NS(=O)(=O)c1ccc(N2N=C(c3ccc(Br)cc3)CC2c2ccc(F)cc2)cc1 (stereo not drawn)	> 30 µM (inactive)	–
Cc1ccccc1N1N=C(c2ccccc2)CC1c1ccc(N(C)C)cc1 (stereo not drawn)	> 30 µM (inactive)	–
COc1ccc(C2CC(c3ccc(F)cc3)=NN2c2ccccc2)cc1OC (stereo not drawn)	> 30 µM (inactive)	–
COc1ccc(C2CC(C(C)(C)C)=NN2c2ccc(S(N)(=O)=O)cc2)cc1 (stereo not drawn)	> 30 µM (inactive)	–
COc1ccc(C2CC(C)=NN2c2ccc(S(N)(=O)=O)cc2)cc1 (stereo not drawn)	> 30 µM (inactive)	–
Fc1ccccc1C1CC(c2ccc(Br)cc2)=NN1c1ccc(Br)cc1 (stereo not drawn)	> 30 µM (inactive)	–
O=S(=O)(c1ccc(N2N=C(c3ccc(Br)cc3)CC2c2ccccc2)cc1)C(F)F (stereo not drawn)	> 30 µM (inactive)	–
COc1ccc(-c2cc(-c3ccccc3)nn2-c2ccc(S(N)(=O)=O)cc2)cc1	inactive	0.38
CN(C)c1ccc(C2CC(c3ccc(F)cc3)=NN2c2ccccc2)cc1 (stereo not drawn)	> 30 µM (inactive)	–
Cc1ccccc1C1CC(c2ccccc2)=NN1c1ccc(S(N)(=O)=O)cc1 (stereo not drawn)	13.6 µM	2.1
COc1ccc(C2CC(c3ccc(F)cc3)=NN2c2cccc(F)c2)cc1OC (stereo not drawn)	inactive	4.88
CN(C)c1ccc(C2CC(c3ccccc3)=NN2c2ccccc2)cc1 (stereo not drawn)	inactive	0.01
Cc1cccc(N2N=C(c3ccccc3)CC2c2ccccc2)c1 (stereo not drawn)	> 30 µM (inactive)	–
COc1ccccc1C1CC(c2ccccc2)=NN1c1ccccc1 (stereo not drawn)	inactive	0.09
COc1ccccc1N1N=C(c2ccccc2)CC1c1ccccc1 (stereo not drawn)	> 30 µM (inactive)	–
Fc1ccc(C2=NN(c3cccc(Br)c3)C(c3ccccc3)C2)cc1 (stereo not drawn)	> 30 µM (inactive)	–
NS(=O)(=O)c1ccc(N2N=C(c3ccccc3)CC2c2ccccc2)cc1 (stereo not drawn)	16.8 µM	2.6
O=[N+]([O-])c1ccc(N2N=C(c3ccccc3)CC2c2ccccc2)cc1 (stereo not drawn)	> 30 µM (inactive)	–

SMILES	EC50	Ki [µM]
Cc1ccccc1N1N=C(c2ccccc2)CC1c1cccc([N+](=O)[O-])c1 (stereo not drawn)	> 30 µM (inactive)	–
O=S(=O)(c1ccc(N2N=C(c3ccccc3)CC2c2ccccc2)cc1)C(F)F (stereo not drawn)	> 30 µM (inactive)	–
COc1ccc(C2CC(c3ccc(C(F)(F)F)cc3)=NN2c2ccc(S(N)(=O)=O)cc2)cc1 (stereo not drawn)	> 30 µM (inactive)	–
NS(=O)(=O)c1ccc(N2N=C(c3ccccc3)CC2c2cccc(Cl)c2)cc1 (stereo not drawn)	3.62 µM	0.56
O=[N+]([O-])c1cccc(C2CC(c3ccc(F)cc3)=NN2c2ccccc2)c1 (stereo not drawn)	> 30 µM (inactive)	–
COc1ccc(C2CC(c3ccc(Cl)cc3)=NN2c2ccccc2)cc1OC (stereo not drawn)	> 30 µM (inactive)	–
COc1ccc(C2=NN(c3ccccc3)C(c3ccccc3C(F)(F)F)C2)cc1 (stereo not drawn)	inactive	3.5
NS(=O)(=O)c1ccc(N2N=C(c3ccccc3)CC2c2cccc(Br)c2)cc1 (stereo not drawn)	3.67 µM	0.57
FC(F)(F)c1ccccc1C1CC(c2ccc(Br)cc2)=NN1c1ccccc1 (stereo not drawn)	> 30 µM (inactive)	–
COc1ccc(C2CC(c3ccccc3)=NN2c2ccc(Cl)c(C(=O)O)c2)cc1OC (stereo not drawn)	> 30 µM (inactive)	–
COc1ccc(C2CC(c3ccc(F)cc3)=NN2c2cc(Cl)ccc2Cl)cc1 (stereo not drawn)	> 30 µM (inactive)	–
COc1ccc(C2=NN(c3ccc(Cl)c(Cl)c3)C(c3ccc(OC)cc3)C2)cc1 (stereo not drawn)	> 30 µM (inactive)	–
Cc1ccc(-c2cc(C(F)(F)F)nn2-c2ccc(S(N)(=O)=O)cc2)cc1	> 30 µM (inactive)	–
COc1ccc(C2CC(C3CCCCC3)=NN2c2ccc(S(N)(=O)=O)cc2)cc1 (stereo not drawn)	> 30 µM (inactive)	–
O=[N+]([O-])c1cccc(C2CC(c3ccccc3)=NN2c2ccccc2)c1 (stereo not drawn)	> 30 µM (inactive)	–
COc1ccc(C2=NN(c3ccccc3)C(c3ccc(OC)c(OC)c3C(=O)O)C2)cc1 (stereo not drawn)	> 30 µM (inactive)	–
CCc1ccc(C2=NN(c3ccc(S(N)(=O)=O)cc3)C(c3ccc(F)cc3)C2)cc1 (stereo not drawn)	inactive	–
O=S(=O)(O)c1ccc(N2N=C(c3ccccc3)CC2c2ccccc2)cc1 (stereo not drawn)	> 30 µM (inactive)	–
CN(C)c1ccc(C2CC(c3ccc(Cl)cc3)=NN2c2ccccc2)cc1 (stereo not drawn)	inactive	4.67
FC(F)(F)c1cccc(N2N=C(c3ccc(Cl)cc3)CC2c2ccccc2Cl)c1 (stereo not drawn)	> 30 µM (inactive)	–

Further lines, results first:

EC50	Ki [µM]	SMILES
2.08 µM	0.32	COc1ccc(C2CC(c3cccc(Cl)c3)=NN2c2ccc(S(N)(=O)=O)cc2)cc1 (stereo not drawn)
> 30 µM (inactive)	–	Clc1ccc(N2N=C(c3ccccc3)CC2c2ccccc2)cc1 (stereo not drawn)
inactive	0.32	COc1ccc(C2CC(c3cccc(Br)c3)=NN2c2ccc(S(N)(=O)=O)cc2)cc1 (stereo not drawn)
> 30 µM (inactive)	–	Brc1ccc(N2N=C(c3ccccc3)CC2c2ccccc2)cc1 (stereo not drawn)
> 30 µM (inactive)	–	COc1ccc(C2=NN(c3cccc(F)c3)C(c3ccc(OC)cc3)C2)cc1 (stereo not drawn)
6.05 µM	0.94	COc1ccc(C2CC(c3ccccc3)=NN2c2ccc(S(N)(=O)=O)cc2)cc1OC (stereo not drawn)
> 30 µM (inactive)	–	O=C(O)c1ccc(N2N=C(c3ccccc3)CC2c2ccccc2)cc1 (stereo not drawn)
> 30 µM (inactive)	–	COc1ccc(C2CC(c3ccccc3C(F)(F)F)=NN2c2ccc(S(N)(=O)=O)cc2)cc1 (stereo not drawn)
> 30 µM (inactive)	–	COc1ccc(C2CC(c3ccc(Br)cc3)=NN2c2ccccc2Cl)cc1 (stereo not drawn)
7.34 µM	1.14	COc1ccc(C2CC(c3ccsc3)=NN2c2ccc(S(N)(=O)=O)cc2)cc1 (stereo not drawn)
3.45 µM	0.53	COc1ccc(C2CC(c3cccc(F)c3)=NN2c2ccc(S(N)(=O)=O)cc2)cc1 (stereo not drawn)
> 30 µM (inactive)	–	COc1ccc(C2CC(c3ccncc3)=NN2c2ccc(S(N)(=O)=O)cc2)cc1 (stereo not drawn)
inactive	3.77	CC(=O)Oc1ccc(C2=NN(c3ccccc3)C(c3ccccc3)C2)cc1 (stereo not drawn)
7.11 µM	1.1	NS(=O)(=O)c1ccc(N2N=C(c3ccc(Cl)cc3)CC2c2ccccc2)cc1 (stereo not drawn)
5.04 µM	0.78	Cc1ccc(C2CC(c3ccccc3)=NN2c2ccc(S(N)(=O)=O)cc2)cc1 (stereo not drawn)
> 30 µM (inactive)	–	COc1ccc(C2CC(c3cccc(N(C)C)c3)=NN2c2ccc(S(N)(=O)=O)cc2)cc1 (stereo not drawn)
3.57 µM	0.55	COc1ccc(C2CC(c3ccccc3F)=NN2c2ccc(S(N)(=O)=O)cc2)cc1 (stereo not drawn)
inactive	0.44	COc1ccc(C2CC(c3ccc(Br)cc3)=NN2c2ccc(S(N)(=O)=O)cc2)cc1 (stereo not drawn)
> 30 µM (inactive)	–	COc1ccc(C2=NN(c3ccc(Cl)cc3)C(c3ccccc3F)C2)cc1 (stereo not drawn)
2.88 µM	0.45	COc1ccc(C2CC(c3ccccc3Cl)=NN2c2ccc(S(N)(=O)=O)cc2)cc1 (stereo not drawn)
5.47 µM	0.85	COc1ccc(C2CC(c3ccc(F)cc3)=NN2c2ccc(S(N)(=O)=O)cc2)cc1 (stereo not drawn)
5.3 µM	0.82	Cc1cccc(C2CC(c3ccccc3)=NN2c2ccc(S(N)(=O)=O)cc2)c1 (stereo not drawn)
inactive	4.86	COc1ccc(C2=NN(c3cccc(F)c3)C(c3ccc(Cl)cc3)C2)cc1 (stereo not drawn)

EC50	Ki [µM]	SMILES
5.52 µM	0.85	COc1ccc(C2CC(c3ccccc3OC)=NN2c2ccc(S(N)(=O)=O)cc2)cc1 (stereo not drawn)
> 30 µM (inactive)	–	COc1ccc(C2=NN(c3ccccc3F)C(c3ccc(F)cc3)C2)cc1 (stereo not drawn)
4.05 µM	0.63	COc1ccc(C2CC(c3ccc(Cl)cc3)=NN2c2ccc(S(N)(=O)=O)cc2)cc1 (stereo not drawn)
3.98 µM	0.62	COc1ccc(C2CC(c3cccs3)=NN2c2ccc(S(N)(=O)=O)cc2)cc1 (stereo not drawn)
> 30 µM (inactive)	–	COc1ccc(C2CC(c3ccccc3)=NN2c2ccc(C(N)=O)cc2)cc1 (stereo not drawn)
> 30 µM (inactive)	–	COc1ccc(C2CC(c3cccc(C(F)(F)F)c3)=NN2c2ccc(S(N)(=O)=O)cc2)cc1 (stereo not drawn)
1.59 µM	0.25	COc1ccc(C2CC(c3cccc(OC)c3)=NN2c2ccc(S(N)(=O)=O)cc2)cc1 (stereo not drawn)
> 30 µM (inactive)	–	COc1ccc(C2CC(c3ccccc3)=NN2c2ccc([N+](=O)[O-])cc2)cc1 (stereo not drawn)
> 30 µM (inactive)	–	COc1ccc(C2CC(c3ccccc3)=NN2c2ccc(Cl)c(C(=O)O)c2)cc1 (stereo not drawn)
inactive	0.36	COc1ccc(C2CC(c3ccccc3C)=NN2c2ccc(S(N)(=O)=O)cc2)cc1 (stereo not drawn)
> 30 µM (inactive)	–	CN(C)c1ccc(C2CC(c3ccccc3)=NN2c2ccc([N+](=O)[O-])cc2)cc1 (stereo not drawn)
inactive	0.01	COc1ccc(C2CC(c3ccccc3)=NN2c2cccc(S(N)(=O)=O)c2)cc1 (stereo not drawn)
inactive	0.39	COc1ccc(C2=NN(c3ccc(S(N)(=O)=O)cc3)C(c3ccc(OC)cc3)C2)cc1 (stereo not drawn)
4.32 µM	0.67	COc1cccc(C2CC(c3ccccc3)=NN2c2ccc(S(N)(=O)=O)cc2)c1 (stereo not drawn)
4.05 µM	0.63	COc1ccc(C2CC(c3cccc(C)c3)=NN2c2ccc(S(N)(=O)=O)cc2)cc1 (stereo not drawn)
3.64 µM	0.56	NS(=O)(=O)c1ccc(N2N=C(c3ccccc3)CC2c2ccc(Cl)cc2)cc1 (stereo not drawn)
> 30 µM (inactive)	–	COc1ccc(C2CC(c3cccnc3)=NN2c2ccc(S(N)(=O)=O)cc2)cc1 (stereo not drawn)
1.7 µM	0.26	NS(=O)(=O)c1ccc(N2N=C(c3ccccc3)CC2c2ccc(Br)cc2)cc1 (stereo not drawn)
inactive	0.37	COc1ccc(C2CC(c3ccc(C)cc3)=NN2c2ccc(S(N)(=O)=O)cc2)cc1 (stereo not drawn)
> 30 µM (inactive)	–	COc1ccc(C2CC(c3ccccc3Br)=NN2c2ccc(S(N)(=O)=O)cc2)cc1 (stereo not drawn)
> 30 µM (inactive)	–	O=[N+]([O-])c1ccc(N2N=C(c3ccccc3)CC2c2ccc(O)cc2)cc1 (stereo not drawn)
> 30 µM (inactive)	–	COc1ccc(C2CC(c3ccc(N(C)C)cc3)=NN2c2ccc(S(N)(=O)=O)cc2)cc1 (stereo not drawn)
